Laboratory results from article PMC5698418 (Nature Communications, 2017).
Several values for one entry are separate records, joined by “and”; a condition that tells them apart may be missing. Equal entries are not always repeated. Structures can show the parent of a compound that is named as a salt. Where two headings read alike, the source gives them in different places.

System: BDNF-induced nuclear Arc expression in primary cortical neurons
Assay: Chemogenomic screen: high-content image-based assay of BDNF-induced nuclear Arc expression (96-well)
Type: cell-based, mouse
Method in brief: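 Nuclear Arc immunofluorescence is quantified automatically within an acetyl-H3K9-defined nuclear mask from ×40 images. Cultures are DIV13 mouse forebrain cortical neurons seeded at 30,000 per well and exposed to BDNF plus compound at a final 16.7 µM, with triplicate biological replicates.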

[1] = chemogenomic (SMART) screen, BDNF-induced nuclear Arc expression, primary cortical neurons, BDNF control 19.5
[2] = nuclear Arc-positive cells relative to DMSO + BDNF control, negative values = decrease
[3] = nuclear Arc-positive cells relative to DMSO control (BDNF), negative = decrease
[4] = BDNF-induced nuclear Arc expression, primary cortical neurons, chemogenomic screen

Row | Structure (SMILES) | Percentage of cell with nuclear Arc immunostaining above 2σ threshold [1] [%] | Fold-change — Normalized to DMSO control (BDNF) [2] | also measured
1 | Cc1nccn1CC1CCc2c(c3ccccc3n2C)C1=O (centres unmarked) [Ondansetron] | 37.6 | 1.9 fold | –
2 | C[C@]12COC(=O)C[C@@H]1CC[C@@H]1[C@@H]2CC[C@@]2(C)[C@H]1CC[C@]2(C)O [Oxandrolone] | – | 1.7 fold | Percentage of cell with nuclear Arc immunostaining above 2σ threshold: 33.5%
3 | NC(=O)N1c2ccccc2CC(=O)c2ccccc21 [Oxcarbazepine] | 23.6 | 1.2 fold | –
4 | NC(=O)CN1CC(O)CC1=O (centres unmarked) [Oxiracetam] | 41.5 | 2.1 fold | –
5 | OC(CNc1ccccc1)Cn1c2ccc(Br)cc2c2cc(Br)ccc21 (centres unmarked) [P7C3] | – | – | Percentage of cell with nuclear Arc immunostaining above 2σ threshold: 1.7%; Fold-change — Normalized to DMSO control (BDNF) [3]: -11.2 fold
6 | CC(C)S(=O)(=O)N[C@H]1CCOC[C@@H]1c1ccc(-c2ccc(C#N)s2)cc1 [PF 4778574] | – | 1.8 fold | Percentage of cell with nuclear Arc immunostaining above 2σ threshold: 35.9%
7 | Cc1nc2n(c(=O)c1CCN1CCC(c3noc4cc(F)ccc34)CC1)CCCC2O (centres unmarked) [Paliperidone] | 15.2 | – | –
8 | COc1cc2c(cc1OC)-c1cc3ccc(OC)c(OC)c3c[n+]1CC2 [Palmatine] | – | – | Percentage of cell with nuclear Arc immunostaining above 2σ threshold: 1.1%; Fold-change — Normalized to DMSO control (BDNF) [3]: -17.5 fold
9 | N#Cc1ccccc1-c1cc(-c2ccccn2)cn(-c2ccccc2)c1=O [Perampanel] | – | – | Percentage of cell with nuclear Arc immunostaining above 2σ threshold: 12.4%
10 | O=C1[C@H]2CCCC[C@H]2C(=O)N1CCCCN1CCN(c2nsc3ccccc23)CC1 [Perospirone] | 17.9 | – | –
11 | OCCN1CCN(CCCN2c3ccccc3Sc3ccc(Cl)cc32)CC1 [Perphenazine] | – | – | Percentage of cell with nuclear Arc immunostaining above 2σ threshold [4]: 1.0%
12 | CN1C(=O)CC(c2ccccc2)C1=O (centres unmarked) [Phensuximide] | 24.8 | 1.3 fold | –
13 | CNC(=O)Oc1ccc2c(c1)[C@]1(C)CCN(C)[C@@H]1N2C [Physostigmine] | – | – | Percentage of cell with nuclear Arc immunostaining above 2σ threshold: 18.3%
14 | O=C([O-])CCCNC(=O)c1cccnc1.[Na+] [Picamilon sodium salt] | 29.2 | 1.5 fold | –
15 | O=C(O)CCCNC(=O)c1cccnc1 [Pikamilone] | 38.6 | 2.0 fold | –
16 | O=c1[nH]c2ccccc2n1C1CCN(CCCC(c2ccc(F)cc2)c2ccc(F)cc2)CC1 [Pimozide] | – | – | Percentage of cell with nuclear Arc immunostaining above 2σ threshold [4]: 1.1%
17 | CCc1ccc(CCOc2ccc(CC3SC(=O)NC3=O)cc2)nc1 (centres unmarked) [Pioglitazone] | 15.4 | – | –
18 | O=C(/C=C/C=C/c1ccc2c(c1)OCO2)N1CCCCC1 [Piperine] | 18.5 | – | –
19 | CC(C)CNC(=O)/C=C/C=C/c1ccc2c(c1)OCO2 [Piperlonguminine] | 23.0 | 1.2 fold | –
20 | NC(=O)CN1CCCC1=O [Piracetam] | – | – | Percentage of cell with nuclear Arc immunostaining above 2σ threshold [4]: 10.5%

Row | Structure (SMILES) | Percentage of cell with nuclear Arc immunostaining above 2σ threshold [1] [%] | Fold-change — Normalized to DMSO control (BDNF) [2] | also measured
21 | Cc1ccc2c(c1)c1c3n2CCNC3CCC1 (centres unmarked) [Pirlindole] | 15.3 | – | –
22 | CCCN[C@H]1CCc2nc(N)sc2C1 [Pramipexole] | 14.5 | – | –
23 | CC(C)C[C@H](CN)CC(=O)O [Pregabalin] | – | – | Percentage of cell with nuclear Arc immunostaining above 2σ threshold: 8.5%
24 | CC(=O)[C@H]1CC[C@H]2[C@@H]3CC=C4C[C@@H](O)CC[C@]4(C)[C@H]3CC[C@]12C [Pregnenolone] | 24.4 | 1.2 fold | –
25 | CCC1(c2ccccc2)C(=O)NCNC1=O [Primidone] | 17.3 | – | –
26 | CCN(CC)CCOC(=O)c1ccc(N)cc1 [Procaine hydrochloride] | 37.1 | 1.9 fold | –
27 | CN1CCN(CCCN2c3ccccc3Sc3ccc(Cl)cc32)CC1 [Prochlorperazine] | – | – | Percentage of cell with nuclear Arc immunostaining above 2σ threshold [4]: 0.375%
28 | OC(CCN1CCCC1)(c1ccccc1)C1CCCCC1 (centres unmarked) [Procyclidine hydrochloride] | 19.3 | – | –
29 | NC(=O)CCC/N=C(\c1ccc(Cl)cc1)c1cc(F)ccc1O [Progabide] | 19.5 | 1.0 fold | –
30 | CN(C)CCCN1c2ccccc2Sc2ccccc21 [Promazine] | – | – | Percentage of cell with nuclear Arc immunostaining above 2σ threshold [4]: 9.7%
31 | CCCn1cnc2c1c(=O)n(CCCCC(C)=O)c(=O)n2C [Propentofylline] | 33.4 | 1.7 fold | –
32 | COc1ccc(CN(CCN(C)C)c2ccccn2)cc1 [Pyrilamine maleate] | 25.2 | 1.3 fold | –
33 | Cc1ncc(CSSCc2cnc(C)c(O)c2CO)c(CO)c1O [Pyrithioxine] | 21.3 | 1.1 fold | –
34 | OCCOCCN1CCN(C2=Nc3ccccc3Sc3ccccc32)CC1 [Quetiapine fumarate] | 25.9 | 1.3 fold | –
35 | O=C(O)C(Cc1c[nH]c2ccccc12)N1C(=O)c2ccccc2C1=O (centres unmarked) [RG-108] | – | 1.8 fold and 1.4 fold | Percentage of cell with nuclear Arc immunostaining above 2σ threshold: 35.1% and 27.5%
36 | C#CCN[C@@H]1CCc2ccccc21 [Rasagiline] | 14.8 | – | –
37 | CCOc1ccccc1OC(c1ccccc1)C1CNCCO1 (centres unmarked) [Reboxetine] | – | – | Percentage of cell with nuclear Arc immunostaining above 2σ threshold: 8.6%
38 | CCN1CCC[C@H]1CNC(=O)c1c(OC)ccc(Br)c1OC [Remoxipride] | 35.4 | 1.8 fold | –
39 | CCOc1cc(CC(=O)N[C@@H](CC(C)C)c2ccccc2N2CCCCC2)ccc1C(=O)O [Repaglinide] | 19.5 | 1.0 fold | –
40 | Oc1ccc(/C=C/c2cc(O)cc(O)c2)cc1 [Resveratrol] | 36.0 | 1.8 fold | –

Row | Structure (SMILES) | Percentage of cell with nuclear Arc immunostaining above 2σ threshold [1] [%] | Fold-change — Normalized to DMSO control (BDNF) [2] | also measured
41 | CCOC(=O)Nc1ccc(NCc2ccc(F)cc2)cc1N [Retigabine] | – | – | Fold-change — Normalized to DMSO control (BDNF): 1.7 fold; Percentage of cell with nuclear Arc immunostaining above 2σ threshold: 32.9%
42 | Cc1nc2n(c(=O)c1CCN1CCC(c3noc4cc(F)ccc34)CC1)CCCC2 [Risperidone] | – | – | Percentage of cell with nuclear Arc immunostaining above 2σ threshold: 6.3%
43 | CCN(C)C(=O)Oc1cccc([C@H](C)N(C)C)c1 [Rivastigmine] | – | 1.7 fold | Percentage of cell with nuclear Arc immunostaining above 2σ threshold: 33.7%
44 | COc1ccc(C2CNC(=O)C2)cc1OC1CCCC1 (centres unmarked) [Rolipram] | 21.4 | 1.1 fold | –
45 | CCCN(CCC)CCc1cccc2c1CC(=O)N2 [Ropinirole] | 14.2 | – | –
46 | CC[C@H](CO)Nc1nc(NCc2ccccc2)c2ncn(C(C)C)c2n1 [Roscovitine] | – | – | Fold-change — Normalized to DMSO control (BDNF): 1.3 fold; Percentage of cell with nuclear Arc immunostaining above 2σ threshold: 24.9%
47 | CN(CCOc1ccc(CC2SC(=O)NC2=O)cc1)c1ccccn1 (centres unmarked) [Rosiglitazone] | 29.8 | 1.5 fold | –
48 | COc1cc2c(cc1OC)[C@@H]1Cc3ccc(OC)c(OC)c3CN1CC2 [Rotundine] | 28.7 | 1.5 fold | –
49 | NC(=O)c1cn(Cc2c(F)cccc2F)nn1 [Rufinamide] | 20.3 | 1.0 fold | –
50 | C[S+](CC[C@H](N)C(=O)[O-])C[C@H]1O[C@@H](n2cnc3c(N)ncnc32)[C@H](O)[C@@H]1O (some centres unmarked) [S-Adenosylmethionine] | 12.8 | – | –
51 | Cl.O=C(O)C1CCCN(CCC=C(c2ccccc2)c2ccccc2)C1 (centres unmarked) [SKF 89976A hydrochloride] | – | 1.1 fold | Percentage of cell with nuclear Arc immunostaining above 2σ threshold: 21.6%
52 | C[C@H](NCc1ccc(OCc2cccc(F)c2)cc1)C(N)=O [Safinamide] | 25.5 | 1.3 fold | –
53 | OC[C@H]1O[C@@H](OCCc2ccc(O)cc2)[C@H](O)[C@@H](O)[C@@H]1O [Salidroside] | 30.7 | 1.6 fold | –
54 | C[C@H](O)[C@H](O)[C@H]1CNc2nc(N)[nH]c(=O)c2N1 [Sapropterin] | 49.8 | 2.6 fold | –
55 | OCCCCC#Cc1cncc(OC[C@@H]2CCN2)c1 [Sazetidine A] | – | 1.8 fold | Percentage of cell with nuclear Arc immunostaining above 2σ threshold: 35.2%
56 | C#CCN(C)[C@H](C)Cc1ccccc1 [Selegiline] | – | 1.5 fold | Percentage of cell with nuclear Arc immunostaining above 2σ threshold: 29.8%
57 | O=C1NCCN1CCN1CCC(c2cn(-c3ccc(F)cc3)c3ccc(Cl)cc23)CC1 [Sertindole] | – | – | Percentage of cell with nuclear Arc immunostaining above 2σ threshold [4]: 0.18%
58 | CN[C@H]1CC[C@@H](c2ccc(Cl)c(Cl)c2)c2ccccc21 [Sertraline] | – | – | Percentage of cell with nuclear Arc immunostaining above 2σ threshold [4]: 0.0%
59 | CC(C)CC(N(C)C)C1(c2ccc(Cl)cc2)CCC1 (centres unmarked) [Sibutramine] | – | 1.1 fold | Percentage of cell with nuclear Arc immunostaining above 2σ threshold: 21.3%
